Where two headings read alike, the source gives them in different places.

For data set [1], the target named is BTK recombinant protein (Homo sapiens (Human), UniProt Q06187). The data set can be described thus: Determination of biochemical BTK (Z'-LYTE kinase assay). The text has this: Example 2 Determination of Biochemical BTK
1. Reagents and Materials
• BTK recombinant protein: Invitrogen, Cat #PV3363; • Z′-LYTE® kinase test kit-tyrosine 1 peptide: Invitrogen, Cat #PV3190; • 384-well low-flange black flat-bottomed polystyrene NBS microplate, no lid, no sterilization: Corning, Cat #3575; • 96-well polystyrene conical-bottomed MicroWell™ plate, sealed with a lid: Thermo Scientific™ Nunc™, Cat #277143; • Envision multi-mode plate reader: PerkinElmer; • Mixmate® shaker: Eppendorf; • TS-2102 shaking incubator: TENSUC; 2. Methods
Z′-LYTE® biochemical assay employs a fluorescence resonance energy transfer (FRET)-based, coupled-enzyme format and is based on the differential sensitivity of phosphorylated and non-phosphorylated peptides to proteolytic cleavage. Both ends of the short peptide substrate are labeled with two fluorescent groups to form a FRET paired combination. In the primary reaction (the Kinase Reaction), the kinase transfers the γ-phosphate of ATP to a single […] residue on the short peptide substrate. In the secondary reaction (the development reaction), the non-phosphorylated short peptides were recognized and cleaved by a site-specific protease (the development reagent). Phosphorylated short peptides can resist such cleavage. Cleavage of short peptides can disrupt the donor (such as coumarin) and receptor fluorophores (fluorescein) on the short peptides, while the phosphorylated short peptides can maintain FRET. The calculation method of the ratio is as follows, and the ratio of the respective emission signals generated by the donor fluorophores emitted (after excitation at 400 nm) to the receptors is calculated. Emission signal ratio=emitted light by coumarin (445 nm)/emitted light by fluorescein (520 nm). If the FRET short peptide is phosphorylated (such as no kinase inhibitor), the emitted light ratio will remain in a lower level. If the FRET short peptide is non-phosphorylated (such as kinase inhibitor), the emitted light ratio will be in a higher level. In this way, the inhibitory effects of different compound inhibitors on BTK kinase activity would be distinguished.
The experiment were carried out according to the instructions of the Z′-LYTE® kinase test kit-tyrosine 1 peptide. Reagent preparation: 1.33× kinase buffer: 5× kinase buffer was diluted with water to 1.33× kinase buffer; an enzyme solution: the kinase was dissolved in 1.33× kinase buffer with the final working concentration being 3.32 nM; a short peptide solution: a short peptide stock solution (1 mM dissolved in DMSO) was dissolved in 1.33× kinase buffer with the final working concentration being 2 μM; Z′-LYTE Tyr01 phosphorylated short peptide solution, 0.6 μl of stock solution (1 mM dissolved in DMSO) was dissolved in 149.4 μl of 1.33× kinase buffer; an ATP solution: an ATP stock solution (10 mM aqueous solution) was dissolved in 1.33× kinase buffer with the final working concentration being 32 μM; a color-developing solution: color-developing solution B was dissolved in color-developing buffer with the final working concentration being 1× color-developing solution; 4× compound preparation: the compound was diluted in 3-fold gradient concentration to finally obtain 4% DMSO aqueous solution containing different concentrations of the compound, with the final working concentration being 3000, 1000, 333.33, 111.11, 37.04, 12.35, 4.12, 1.37 nM, 8 concentration points in total.
Specific steps of the experiment: In the experiment, there were three control groups, each with 8 replicate wells, which were C1 100% inhibition group (no ATP), C2 0% inhibition group (with ATP), and C3 100% phosphorylation group, respectively. 2.5 μl of serially diluted compound was added to each well of a 384-well plate, with double replicate wells, and 4% DMSO solution was added to wells C1, C2, and C3. […]

Data set [2] in a line: Study on in vivo pharmacokinetics in mice. Also noted: species or system mouse. The conditions noted are these: for concentration at 8 h / concentration at 24 h: male, ICR, mouse. The text has this:
Example 6 Study on In Vivo Pharmacokinetics in Mice
Solutol HS15 was purchased from BASF, Germany, ethanol (anhydrous) was purchased from Nanjing Chemical Reagent Co., Ltd., physiological saline was purchased from Huayu (Wuxi) Pharmaceutical Co., Ltd., dimethyl sulfoxide (DMSO) and sodium carboxymethyl cellulose 800-1200 (CMC-Na) were purchased from Sinopharm Chemical Reagent Co., Ltd.
Preparation of ethanol/Solutol mixed solution (1:1, v/v): taking an appropriate amount of Solutol HS15 in a centrifuge tube and placing in a 37° C. water bath until dissolved, placing on the bench top to room temperature, taking 1 mL of Solutol in a centrifuge tube containing 1 mL of ethanol and mixing well to obtain the mixed solution.
Taking an appropriate amount of stock solution and placing in a blank centrifuge tube, adding an appropriate amount of ethanol/Solutol mixed solution prepared in advance, vortexing, then adding an appropriate amount of physiological saline, and mixing well until a transparent liquid.
3. Administration to Animals and Sample Collection:
Male ICR mice were purchased from Shanghai Lingchang Biotechnology Co., Ltd. 18 mice were randomly divided into intravenous administration group and intragastric administration group. The mice were fasted overnight before administration. The mice were withheld food but allowed to access water freely within 4 hours after administration, and allowed to freely access food and water after 4 hours. After anesthesia with isoflurane, blood was collected from the retroorbital venous plexus and placing in an centrifuge tube containing anticoagulant, and the centrifuge tube was stored in an box containing wet ice until the plasma was centrifuged.
The plasma samples were pre-treated and then analyzed by liquid chromatography-tandem mass spectrometry (LC-MS/MS), the instrument model was API5500. The analytical chromatographic column was Waters XSELECT HSS T3 C18 column (50×2.1 mm, 2.5 μm). In the mobile phases, deionized water containing 0.1% formic acid and 0.1% acetonitrile was used as the aqueous phase and acetonitrile containing 0.1% formic acid was used as the organic phase. The concentrations of the compound in the samples were determined as follows. Firstly, a standard curve was established, and the peak area ratios of the compound 19 to the internal standard in the standard curve were used as indexes. The theoretical concentrations of compound 19 and the peak area ratios of compound 19 to the internal standard were fitted with a quadratic regression equation to obtain the regression equation. The sample concentrations were calculated by measuring the peak area ratio of the compound of the test sample to the internal standard according to the standard curve.

Sequence of BTK recombinant protein (Q06187 whole entry): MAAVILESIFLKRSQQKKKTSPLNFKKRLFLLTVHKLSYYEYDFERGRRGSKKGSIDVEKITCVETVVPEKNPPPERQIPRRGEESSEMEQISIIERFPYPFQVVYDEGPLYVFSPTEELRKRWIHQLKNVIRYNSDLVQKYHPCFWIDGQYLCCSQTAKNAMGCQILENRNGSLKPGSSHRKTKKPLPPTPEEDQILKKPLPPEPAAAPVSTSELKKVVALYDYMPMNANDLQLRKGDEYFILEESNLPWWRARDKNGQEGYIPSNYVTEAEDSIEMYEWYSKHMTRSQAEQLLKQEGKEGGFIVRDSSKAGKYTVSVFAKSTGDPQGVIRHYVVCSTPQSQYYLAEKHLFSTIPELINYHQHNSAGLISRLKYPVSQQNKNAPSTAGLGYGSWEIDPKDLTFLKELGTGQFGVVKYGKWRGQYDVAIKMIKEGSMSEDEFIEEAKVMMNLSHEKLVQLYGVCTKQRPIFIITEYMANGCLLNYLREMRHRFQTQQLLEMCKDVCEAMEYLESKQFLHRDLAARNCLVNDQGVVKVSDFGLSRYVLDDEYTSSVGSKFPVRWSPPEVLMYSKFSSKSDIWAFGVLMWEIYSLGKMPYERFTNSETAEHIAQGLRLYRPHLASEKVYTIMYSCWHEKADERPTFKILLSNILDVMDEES

For the molecule `C[C@H]1CN(C2COC2)CCN1c1ccc(Nc2cc(-c3ccnc(-n4ccn5c6c(cc5c4=O)CC(C)(C)C6)c3CO)cn(C)c2=O)nc1` [Compound 19], in data set [1], the IC50 (in general, the concentration at which inhibition is half-maximal) is 8 nM. The concentration at 8 h turned out to be 555 ng/mL in data set [2] (oral, mice, intragastric, 10 mg/kg, plasma at 8 h, read-out: C8 h) and 555 ng/mL in data set [2] (plasma, 10 mg/kg, oral administration in mice, 8 h, read-out: plasma concentration at 8 h). For the same molecule, the concentration at 24 h in data set [2] (oral, mice, intragastric, 10 mg/kg, plasma at 24 h, read-out: C24 h) was 8.5 ng/mL; in data set [2] (plasma, 10 mg/kg, oral administration in mice, 24 h, lower limit of quantification 2.4 ng/mL, read-out: plasma concentration at 24 h), 8.5 ng/mL. In data set [2] (mice, intragastric, 10 mg/kg), the T1/2 is on record as 2.7 h. In data set [2] (oral administration in mice), the “plasma exposure (AUC0-∞) relative to reference GDC-0853” value is listed as “about 1.7 times”. The “plasma concentration at 8 h relative to GDC-0853” value in data set [2] (oral administration in mice, 8 h) was “about 3.9 folds”.

The record behind these values is patent publication US12070457B2, “Substituted pyridines, pyridazines, pyrimidines, and 1,2,3-triazines as bruton's tyrosine kinase inhibitors” (HUTCHISON MEDIPHARMA LIMITED, priority 2020, dated 2024).
